In patent US10934310B2, “Inhibitors of Bruton's tyrosine kinase and method of their use” (JANSSEN PHARMACEUTICA NV, priority 2015, dated 2021):

Biological target: unphosphorylated-BTK kinase domain (UP-BTK), GST-tagged human BTK (389-659aa) (Homo sapiens (Human), UniProt Q06187)
Assay: BTK Kinase Lanthascreen Binding Assay
Conditions: compound, 50 nM Tracer 236, 2 nM anti-GST antibody, 60 minutes; pIC50 = negative log of the IC50 in molar
Description: BTK Kinase Lanthascreen Binding Assay:
A BTK kinase lanthascreen binding assay monitors compound binding to unphosphorylated-BTK kinase domain (UP-BTK), by competing with a fluorescent labeled tracer. […] Data were analyzed using Xlfit™ version 5.3 from ID Business Solutions (Guildford), Microsoft Excel add-in. pIC50 refers to the negative log of the IC50 in molar.

Chain of unphosphorylated-BTK kinase domain (UP-BTK), GST-tagged human BTK (389-659aa) (Q06187 389-659): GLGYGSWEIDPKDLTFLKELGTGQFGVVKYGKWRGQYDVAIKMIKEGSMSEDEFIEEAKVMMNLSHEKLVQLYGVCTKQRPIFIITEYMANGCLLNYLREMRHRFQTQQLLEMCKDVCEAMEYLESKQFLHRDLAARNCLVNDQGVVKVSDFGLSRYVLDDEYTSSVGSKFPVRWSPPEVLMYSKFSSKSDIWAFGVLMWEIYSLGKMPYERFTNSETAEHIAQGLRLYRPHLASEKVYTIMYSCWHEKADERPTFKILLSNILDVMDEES

| Compound | BTK_I_binding pIC50 |
| --- | --- |
| C=CC(=O)N[C@H]1CCC[C@H]1NC(=O)c1sc2nccc3c2c1NC(=O)N3c1cc(-c2ccccc2)ncn1 [Example 167, N-((1R,2S)-2-Acrylamidocyclopentyl)-4-oxo-5-(6-phenylpyrimidin-4-yl)-4,5-dihydro-3H-1-thia-3,5,8-triazaacenaphthylene-2-carboxamide] | 8.34 |
| C=CC(=O)N[C@H]1CCCC[C@H]1NC(=O)c1sc2nccc3c2c1NC(=O)N3c1ccnc(-c2ccccc2)c1 [Example 168, N-((1R,2S)-2-Acrylamidocyclohexyl)-4-oxo-5-(2-phenylpyridin-4-yl)-4,5-dihydro-3H-1-thia-3,5,8-triazaacenaphthylene-2-carboxamide] | 8.10 |
| C=CC(=O)N[C@H]1CCC[C@H]1NC(=O)c1sc2nccc3c2c1NC(=O)N3c1ccnc(-c2ccccc2)c1 [Example 169, N-((1R,2S)-2-Acrylamidocyclopentyl)-4-oxo-5-(2-phenylpyridin-4-yl)-4,5-dihydro-3H-1-thia-3,5,8-triazaacenaphthylene-2-carboxamide] | 8.26 |
| C=CC(=O)N[C@H]1CCC[C@H]1NC(=O)c1sc2nccc3c2c1NC(=O)N3c1ccc(Oc2ccccc2)nc1 [Example 178, N-((1R,2S)-2-Acrylamidocyclopentyl)-4-oxo-5-(6-phenoxypyridin-3-yl)-4,5-dihydro-3H-1-thia-3,5,8-triazaacenaphthylene-2-carboxamide] | 8.28 |
| C=CC(=O)N[C@H]1CCCC[C@H]1NC(=O)c1sc2nccc3c2c1NC(=O)N3c1cnc(OC2CCC2)cc1C [Example 183, N-((1R,2S)-2-Acrylamidocyclohexyl)-5-(6-cyclobutoxy-4-methylpyridin-3-yl)-4-oxo-4,5-dihydro-3H-1-thia-3,5,8-triazaacenaphthylene-2-carboxamide] | 7.58 |
| C=CC(=O)N[C@@H]1CCC[C@H]1NC(=O)c1sc2nccc3c2c1NC(=O)N3c1ccc(Oc2ccccc2)cn1 [Example 185, N-((1R,2R)-2-Acrylamidocyclopentyl)-4-oxo-5-(5-phenoxypyridin-2-yl)-4,5-dihydro-3H-1-thia-3,5,8-triazaacenaphthylene-2-carboxamide] | 7.56 |
| C=CC(=O)N[C@H]1CCCC[C@H]1NC(=O)c1sc2nccc3c2c1NC(=O)N3c1ccc(OC2CCC2)nc1C [Example 187, N-((1R,2S)-2-Acrylamidocyclohexyl)-5-(6-cyclobutoxy-2-methylpyridin-3-yl)-4-oxo-4,5-dihydro-3H-1-thia-3,5,8-triazaacenaphthylene-2-carboxamide] | 7.30 |
| C=CC(=O)N[C@H]1CCC[C@H]1NC(=O)c1sc2nccc3c2c1NC(=O)N3c1cccc(-c2ccccc2)c1 [Example 193, 5-([1,1′-Biphenyl]-3-yl)-N-((1R,2S)-2-acrylamidocyclopentyl)-4-oxo-4,5-dihydro-3H-1-thia-3,5,8-triazaacenaphthylene-2-carboxamide] | 8.09 |
| C=CC(=O)N[C@H]1CCC[C@H]1NC(=O)c1sc2nccc3c2c1NC(=O)N3c1cccc(-c2ccccn2)c1 [Example 194, N-((1R,2S)-2-Acrylamidocyclopentyl)-4-oxo-5-(3-(pyridin-2-yl)phenyl)-4,5-dihydro-3H-1-thia-3,5,8-triazaacenaphthylene-2-carboxamide] | 7.89 |
| C=CC(=O)N[C@@H]1CC[C@H](NC(=O)c2sc3nccc4c3c2NC(=O)N4c2ccnc(-c3ccccc3)c2)C1 [Example 198, N-((1S,3R)-3-Acrylamidocyclopentyl)-4-oxo-5-(2-phenylpyridin-4-yl)-4,5-dihydro-3H-1-thia-3,5,8-triazaacenaphthylene-2-carboxamide] | 7.98 |
| C=CC(=O)N[C@H]1CCC[C@H]1NC(=O)c1sc2nccc3c2c1NC(=O)N3c1cnc(Oc2ccccc2)cn1 [Example 201, N-((1R,2S)-2-Acrylamidocyclopentyl)-4-oxo-5-(5-phenoxypyrazin-2-yl)-4,5-dihydro-3H-1-thia-3,5,8-triazaacenaphthylene-2-carboxamide] | 8.32 |
| C=CC(=O)N[C@H]1CCC[C@H]1NC(=O)c1sc2nccc3c2c1NC(=O)N3c1cccc(-c2cccnc2)c1 [Example 202, N-((1R,2S)-2-Acrylamidocyclopentyl)-4-oxo-5-(3-(pyridin-3-yl)phenyl)-4,5-dihydro-3H-1-thia-3,5,8-triazaacenaphthylene-2-carboxamide] | 7.90 |
| C=CC(=O)N[C@H]1CCC[C@H]1NC(=O)c1sc2nccc3c2c1NC(=O)N3c1cnnc(-c2ccccc2)c1 [Example 203, N-((1R,2S)-2-Acrylamidocyclopentyl)-4-oxo-5-(6-phenylpyridazin-4-yl)-4,5-dihydro-3H-1-thia-3,5,8-triazaacenaphthylene-2-carboxamide] | 8.06 |
| C=CC(=O)N[C@H]1CCC[C@H]1NC(=O)c1sc2nccc3c2c1NC(=O)N3c1ccc(OC2CCOCC2)cc1C [Example 206, N-((1R,2S)-2-Acrylamidocyclopentyl)-5-(2-methyl-4-((tetrahydro-2H-pyran-4-yl)oxy)phenyl)-4-oxo-4,5-dihydro-3H-1-thia-3,5,8-triazaacenaphthylene-2-carboxamide] | 7.33 |
| C=CC(=O)N[C@H]1CCCC[C@H]1NC(=O)c1sc2nccc3c2c1NC(=O)N3c1ccc(OC(C)C)nc1C [Example 211, N-((1R,2S)-2-Acrylamidocyclohexyl)-5-(6-isopropoxy-2-methylpyridin-3-yl)-4-oxo-4,5-dihydro-3H-1-thia-3,5,8-triazaacenaphthylene-2-carboxamide] | 6.92 |

Next, values leading:

| BTK_I_binding pIC50 | Compound |
| --- | --- |
| 5.19 | N[C@@H]1CC[C@H](NC(=O)c2sc3nccc4c3c2NC(=O)N4c2ccc(Oc3ccccc3)cc2)C1 [Example 164, N-((1S,3R)-3-Aminocyclopentyl)-4-oxo-5-(4-phenoxyphenyl)-4,5-dihydro-3H-1-thia-3,5,8-triazaacenaphthylene-2-carboxamide] |
| 8.35 | C=CC(=O)N[C@H]1CCCC[C@H]1NC(=O)c1sc2nccc3c2c1NC(=O)N3c1ccc(Oc2ccccc2)nc1 [Example 172, N-((1R,2S)-2-Acrylamidocyclohexyl)-4-oxo-5-(6-phenoxypyridin-3-yl)-4,5-dihydro-3H-1-thia-3,5,8-triazaacenaphthylene-2-carboxamide] |
| 7.49 | C=CC(=O)N[C@@H]1CCC[C@H]1NC(=O)c1sc2nccc3c2c1NC(=O)N3c1ccc(Oc2ccccc2)nc1 [Example 177, N-((1R,2R)-2-Acrylamidocyclopentyl)-4-oxo-5-(6-phenoxypyridin-3-yl)-4,5-dihydro-3H-1-thia-3,5,8-triazaacenaphthylene-2-carboxamide] |
| 8.37 | C=CC(=O)N[C@H]1CCC[C@H]1NC(=O)c1sc2nccc3c2c1NC(=O)N3c1ccc(Oc2ccccc2)cn1 [Example 179, N-((1R,2S)-2-Acrylamidocyclopentyl)-4-oxo-5-(5-phenoxypyridin-2-yl)-4,5-dihydro-3H-1-thia-3,5,8-triazaacenaphthylene-2-carboxamide] |
| 7.55 | C=CC(=O)N[C@@H]1CC[C@@H](NC(=O)c2sc3nccc4c3c2NC(=O)N4c2ccc(Oc3ccccc3)cc2C)C1 [Example 184, N-((1R,3R)-3-Acrylamidocyclopentyl)-5-(2-methyl-4-phenoxyphenyl)-4-oxo-4,5-dihydro-3H-1-thia-3,5,8-triazaacenaphthylene-2-carboxamide] |
| 8.23 | C=CC(=O)N[C@H]1CCC[C@H]1NC(=O)c1sc2nccc3c2c1NC(=O)N3c1cc(-c2ccccc2)ccn1 [Example 189, N-((1R,2S)-2-Acrylamidocyclopentyl)-4-oxo-5-(4-phenylpyridin-2-yl)-4,5-dihydro-3H-1-thia-3,5,8-triazaacenaphthylene-2-carboxamide] |
| 7.95 | C=CC(=O)N[C@@H]1CC[C@H](NC(=O)c2sc3nccc4c3c2NC(=O)N4c2ccc(Oc3ccccc3)c(Cl)c2)C1 [Example 191, N-((1S,3R)-3-Acrylamidocyclopentyl)-5-(3-chloro-4-phenoxyphenyl)-4-oxo-4,5-dihydro-3H-1-thia-3,5,8-triazaacenaphthylene-2-carboxamide] |
| 7.92 | C=CC(=O)N[C@H]1CCC[C@H]1NC(=O)c1sc2nccc3c2c1NC(=O)N3c1cncc(-c2ccccc2)c1 [Example 192, N-((1R,2S)-2-Acrylamidocyclopentyl)-4-oxo-5-(5-phenylpyridin-3-yl)-4,5-dihydro-3H-1-thia-3,5,8-triazaacenaphthylene-2-carboxamide] |
| 8.13 | C=CC(=O)N[C@H]1CCC[C@H]1NC(=O)c1sc2nccc3c2c1NC(=O)N3c1ccc(Oc2cccnc2)cc1C [Example 199, N-((1R,2S)-2-Acrylamidocyclopentyl)-5-(2-methyl-4-(pyridin-3-yloxy)phenyl)-4-oxo-4,5-dihydro-3H-1-thia-3,5,8-triazaacenaphthylene-2-carboxamide] |
| 7.62 | C=CC(=O)N[C@H]1CCC[C@H]1NC(=O)c1sc2nccc3c2c1NC(=O)N3c1ccc(OC(C)C)cc1 [Example 205, N-((1R,2S)-2-Acrylamidocyclopentyl)-5-(4-isopropoxyphenyl)-4-oxo-4,5-dihydro-3H-1-thia-3,5,8-triazaacenaphthylene-2-carboxamide] |
| 7.53 | C=CC(=O)N[C@H]1CCC[C@H]1NC(=O)c1sc2nccc3c2c1NC(=O)N3c1ccnc(C(C)C)c1 [Example 207, N-((1R,2S)-2-Acrylamidocyclopentyl)-5-(2-isopropylpyridin-4-yl)-4-oxo-4,5-dihydro-3H-1-thia-3,5,8-triazaacenaphthylene-2-carboxamide] |

Same assay, conditions: read-out: BTK_I_binding pIC50 (converted)

| Compound | IC50 |
| --- | --- |
| C=CC(=O)N[C@H]1CC[C@@H](NC(=O)c2sc3nccc4c3c2NC(=O)N4c2ccnc(-c3ccccc3)c2)C1 [Example 208, N-((1R,3S)-3-Acrylamidocyclopentyl)-4-oxo-5-(2-phenylpyridin-4-yl)-4,5-dihydro-3H-1-thia-3,5,8-triazaacenaphthylene-2-carboxamide] | > 1 µM |
